Assay results as given in patent US20260345582A1, “PRODRUG FOR ANTI-AGING RELATED DISEASES AND USE METHOD THEREOF” (Beijing SunCell Bio-Medical Co., Ltd., priority 2022, published 2026).

What was measured:
[1] = liver microsomal metabolic stability, rat; conditions: Fu and RB assumed to be 1
Protocol: (§1) Hepatic Microsomal Metabolic Stability
(§2) A13bGa1 was co-incubated with the mouse, rat, canine, monkey and human […] and the incubation medium at a final drug concentration of 1 μM in the incubation system for 60 minutes. Samples were taken and analyzed at time points 0, 15, 30, 45 and 60 minutes during the incubation. The reaction was terminated by adding an amount of acetonitrile solution containing the internal standard. […] The residual percentage, half-life, intrinsic clearance, amplified clearance, hepatic clearance and hepatic extraction ratio were determined. The entire experiment was performed in triplicate. All data calculations were performed by Microsoft Excel software. Peak areas were detected by extracting the ionic spectrum. The in vitro half-life (t1/2) of the parent compound was detected by fitting the natural logarithm of the percentage elimination of the parent compound linearly to time.
(§3) The in vitro intrinsic clearance (in μL/min/mg protein) was calculated using the following equation: in vitro CLint=kV/N
(§4) The amplified clearance (in mL/min/kg) was calculated using the following equation: Amplified CLint=kV/N×the amplification factor
(§5) The hepatic clearance (in mL/min/kg) was calculated using the following equation: The predicted hepatic CLH=(Q×Fu/RB×the amplified CLint)/(Q+Fu/RB×the amplified CLint) • V=the incubation volume per well (0.2 mL); • N=the total amount of protein (mg) • Q=the hepatic blood flow (mL/min/kg) • Fu=the plasma free rate (assumed to be 1) • RB=the whole blood partition coefficient (assumed to be 1)
(§6) The hepatic uptake rate was calculated using the following equation:
(§7) The hepatic extraction ratio (ER)=(the predicted hepatic CLH)/Q

[2] = liver microsomal metabolic stability, mouse; conditions: Fu and RB assumed to be 1
Protocol: as §1, §2, §3, §4, §5, §6, §7

[3] = liver microsomal metabolic stability, human; conditions: Fu and RB assumed to be 1
Protocol: as §1, §2, §3, §4, §5, §6, §7

[4] = liver microsomal metabolic stability, canine; conditions: canine; Fu and RB assumed to be 1
Protocol: as §1, §2, §3, §4, §5, §6, §7

[5] = liver microsomal metabolic stability, monkey; conditions: Fu and RB assumed to be 1
Protocol: as §1, §2, §3, §4, §5, §6, §7

[6] = tested on: A549 cells (human non-small cell lung cancer cell), induced senescent with Cisplatin; assay: in vitro killing of induced senescent A549 cells (CCK-8); assay type: cell-based; conditions: induced senescent A549 cell model, FIG. 1A
Excerpt: A. The killing results of some selected compounds in the in vitro compound library screening on the induced senescent A549 cell model. Wherein, MZ-1, dBET6, ARV-825, I-BET726, I-BET151, and INCB057643 are all BET inhibitors; A1331852 and A1155463 are novel Bcl-xL inhibitors; Dasatinib, Quercetin, Fisetin, Curcumin are the familiar active drugs or natural products.
B. Comparison of the killing effects of three Bcl-xL inhibitors on the induced senescent A549 cell model. A549 represents the normal uninduced A549 cell group; and A549-CDDP represents the senescent A549 cell group induced with Cisplatin (CDDP) in vitro.
(§8) Induction of the Cellular Senescence

non-senescent HEF cells = assay: cell killing activity assay, non-senescent HEF cells (Example 7); assay type: cell-based, human; conditions: highest concentration (25 μM)
Protocol: as §8
(§9) Cell Killing Activity Assay
(§10) Preparation of the cell plates: The non-senescent, and the induced senescent HEF cells and A549 cells were taken respectively, digested with trypsin, and centrifuged at 1000 rmp for 5 minutes. The supernatants were removed, and the cells were resuspended in fresh DMEM medium containing 10% foetal bovine serum for counting. The cell density was adjusted so that the density of the non-senescent cells was at 4000 cells/100 μL and the density of the senescent cells was at 7000 cells/100 μL. The cell suspension was added to the 96-well transparent cell culture plates at 100 μL per well. […]
(§11) Formulation of the drug concentration gradients: After the cells adhered to the wall on the second day, the small molecule compounds (d-12, d-11, and d-4) to be tested for activity are ready to be added. […]
(§12) Detection of the cell survival after the drug treatment using the CCK-8 method: Three days after the addition of the drug, the well plate was removed, the supernatant was discarded, and 100 μL of the pre-prepared CCK-8 working solution was added to each well. […] The plate was taken out to determine the absorbance value (OD value) of each well at the wavelength of 450 nm. The cell viability in each experimental group was calculated. […]

senescent A549 cells = assay: cell killing activity assay, senescent A549 cells (Example 7); assay type: cell-based, human; conditions: for selective killing of the senescent cells: A549-induced senescence model, three days, CCK-8, FIG. 7
Protocol: as §8, §9
Preparation of the cell plates: The non-senescent, and the induced senescent HEF cells and A549 cells were taken respectively, digested with trypsin, and centrifuged at 1000 rmp for 5 minutes. The supernatants were removed, and the cells were resuspended in fresh DMEM medium containing 10% foetal bovine serum for counting. The cell density was adjusted so that the density of the non-senescent cells was at 4000 cells/100 μL and the density of the senescent cells was at 7000 cells/100 μL. The cell suspension was added to the 96-well transparent cell culture plates at 100 μL per well. Note that the edge wells of the 96-well plate were not used for the test wells, and 300 μL PBS is added separately to reduce the medium evaporation. The cell-spread 96-well plates were put back into the incubator at 37 °C for the overnight incubation until the cells adhered to the wall.
Formulation of the drug concentration gradients: After the cells adhered to the wall on the second day, the small molecule compounds (d-12, d-11, and d-4) to be tested for activity are ready to be added. […] 3 parallel replicate wells were set up for each test drug concentration. The 96-well plate was put back into the incubator at 37 °C, and the cell survival was tested after three days.
Detection of the cell survival after the drug treatment using the CCK-8 method: Three days after the addition of the drug, the well plate was removed, the supernatant was discarded, and 100 μL of the pre-prepared CCK-8 working solution was added to each well. The CCK-8 working solution was obtained by diluting the CCK8 stock solution (C0041, Beyotime) with the serum-free DMEM medium in 10-fold volume. The 96-well plate added with the CCK-8 working solution was put back to the incubator at 37 °C and incubated for 0.5-2 hours. The plate was taken out to determine the absorbance value (OD value) of each well at the wavelength of 450 nm. The cell viability in each experimental group was calculated. […]

non-senescent A549 cells = assay: cell killing activity assay, non-senescent A549 cells (Example 7); assay type: cell-based, human; conditions: non-senescent A549, highest concentration (25 μM)
Protocol: as §8, §9, §10, §11, §12

senescent HEF cells = assay: cell killing activity assay, senescent HEF cells (Example 7); assay type: cell-based, human; conditions: HEF-induced senescence model, three days, CCK-8, FIG. 7
Protocol: as §8, §9, §10, §11, §12

[7] = tested on: senescent cells (A549 and HEF); assay: cell killing activity assay, senescent A549 and HEF cell models (Example 7); assay type: cell-based, human; conditions: FIG. 7
Protocol: as §8, §9, §10, §11, §12

SMILES: O=c1ccc2ccc(O)cc2o1 [7-hydroxycoumarin, reference compound]
- The predicted intrinsic hepatic clearance Clint [1]: 52.33 mL/min/kg
- The predicted intrinsic hepatic clearance Clint [2]: 87.82 mL/min/kg
- The predicted intrinsic hepatic clearance Clint [3]: 20.16 mL/min/kg
- The predicted intrinsic hepatic clearance Clint [4]: 30.44 mL/min/kg
- The predicted intrinsic hepatic clearance Clint [5]: 42.08 mL/min/kg

SMILES: Cc1sc2c(c1C)C(c1ccc(Cl)cc1)=N[C@@H](CC(=O)Nc1ccc(OCCOCCOCCOCCNc3cccc4c3C(=O)N(C3CCC(=O)NC3=O)C4=O)cc1)c1nnc(C)n1-2 (stereo partly shown) [ARV825]
- senescent cell killing activity and selectivity, compound screening [6]: better in vitro killing activity

SMILES: CN(C)CC#Cc1ccc(OCCCc2sc(N3CCc4cccc(C(=O)Nc5nc6ccccc6s5)c4C3)nc2C(=O)O)c(F)c1 [Compound A1155463]
- senescent cell killing activity and selectivity, compound screening [6]: good senescent cell killing activity and selectivity in vitro

SMILES: Cc1ncsc1-c1ccc(CNC(=O)[C@@H]2C[C@@H](O)CN2C(=O)[C@@H](NC(=O)COCCOCCOCCNC(=O)C[C@@H]2N=C(c3ccc(Cl)cc3)c3c(sc(C)c3C)-n3c(C)nnc32)C(C)(C)C)cc1 [MZ1]
- senescent cell killing activity and selectivity, compound screening [6]: better in vitro killing activity

SMILES: CC(=O)OC[C@H]1O[C@@H](Oc2ccc(C(Cc3cn(CCCN4CCOCC4)nn3)OC(=O)c3nc(N4CCc5cccc(C(=O)Nc6nc7ccccc7s6)c5C4)ccc3-c3cnn(CC45CC6CC(CC(C6)C4)C5)c3C)cc2[N+](=O)[O-])[C@H](OC(C)=O)[C@@H](OC(C)=O)[C@H]1OC(C)=O (stereo partly drawn) [d-11]
- killing of the non-senescent cells (non-senescent HEF cells): none of the three molecules killed the non-senescent cells
- selective killing of the senescent cells (senescent A549 cells): selective killing of the senescent cells
- killing of the non-senescent cells (non-senescent A549 cells): none of the three molecules killed the non-senescent cells
- selective killing of the senescent cells (senescent HEF cells): selective killing of the senescent cells

SMILES: Cc1c(-c2ccc(N3CCc4cccc(C(=O)Nc5nc6ccccc6s5)c4C3)nc2C(=O)OC(Cc2cn(CCCN3CCOCC3)nn2)c2ccc(O[C@@H]3O[C@H](CO)[C@H](O)[C@H](O)[C@H]3O)c([N+](=O)[O-])c2)cnn1CC12CC3CC(CC(C3)C1)C2 (stereo partly drawn) [d-12]
- killing of the non-senescent cells (non-senescent HEF cells): none of the three molecules killed the non-senescent cells
- relative activity in killing the senescent cells among the three molecules [7]: relatively more active in killing the senescent cells
- selective killing of the senescent cells (senescent A549 cells): selective killing of the senescent cells
- IC50 (senescent A549 cells; Homo sapiens, 72 h, Cisplatin-induced senescent A549, three days, CCK-8): ~6.9 µM
- killing of the non-senescent cells (non-senescent A549 cells): none of the three molecules killed the non-senescent cells
- selective killing of the senescent cells (senescent HEF cells): selective killing of the senescent cells

SMILES: Cc1sc2c(c1C)C(c1ccc(Cl)cc1)=N[C@@H](CC(=O)NCCCCCCCCNC(=O)COc1cccc3c1C(=O)N(C1CCC(=O)NC1=O)C3=O)c1nnc(C)n1-2 (stereo partly shown) [dBET6]
- senescent cell killing activity and selectivity, compound screening [6]: better in vitro killing activity
